Source: ChEMBL document CHEMBL4261648, “Lobaric acid and pseudodepsidones inhibit NF-κB signaling pathway by activation of PPAR-γ” (Bioorg Med Chem, 2018)
Activity calls are given as the source filed them. The calls are words filed in the database; no cut-off is given here.

Experiments:
[1] = molecular target: Toll-like receptor 4 (Homo sapiens) (UniProt O00206); test: (§1) Inhibition of TLR4 in human U937-3xkappaB-LUC cells assessed as inhibition of Aggregatibacter actinomycetemcomitans LPS-induced NF-kappaB activation at 10 uM preincubated for 30 mins followed by LPS stimulation and measured after 6 hrs post LPS challenge by Bright-Glo luciferase reporter gene assay relative to control
[2] = Cytotoxicity against PMA-differentiated human U937 macrophages assessed as cell viability at 10 uM after 24 hrs by MTT assay relative to untreated control; assay type: cell-based, U-937; conditions: read-out: Activity
[3] = Cytotoxicity against PMA-differentiated human U937 macrophages assessed as cell viability at 20 uM after 24 hrs by MTT assay relative to untreated control; assay type: cell-based, U-937; conditions: read-out: Activity
U-937 [4] = test: Antiinflammatory activity in PMA-differentiated human U937 cells assessed as inhibition of LPS-induced TNFalpha secretion at 10 uM preincubated for 2 hrs followed by LPS stimulation and measured after 24 hrs post LPS challenge by ELISA relative to control; assay type: functional
[5] = Cytotoxicity against PMA-differentiated human U937 macrophages assessed as cell viability at 80 uM after 24 hrs by MTT assay relative to untreated control; assay type: cell-based, U-937; conditions: read-out: Activity
U-937 [6] = test: Antiinflammatory activity in PMA-differentiated human U937 cells assessed as inhibition of LPS-induced TNFalpha secretion at 40 uM preincubated for 2 hrs followed by LPS stimulation and measured after 24 hrs post LPS challenge by ELISA relative to control; assay type: functional
[7] = molecular target: Toll-like receptor 4 (Homo sapiens) (UniProt O00206); test: as §1, with “20” for “10”
U-937 [8] = test: Antiinflammatory activity in PMA-differentiated human U937 cells assessed as inhibition of LPS-induced TNFalpha secretion at 20 uM preincubated for 2 hrs followed by LPS stimulation and measured after 24 hrs post LPS challenge by ELISA relative to control; assay type: functional
U-937 [9] = test: Antiinflammatory activity in PMA-differentiated human U937 cells assessed as inhibition of LPS-induced TNFalpha secretion at 80 uM preincubated for 2 hrs followed by LPS stimulation and measured after 24 hrs post LPS challenge by ELISA relative to control; assay type: functional
[10] = Cytotoxicity against PMA-differentiated human U937 macrophages assessed as cell viability at 40 uM after 24 hrs by MTT assay relative to untreated control; assay type: cell-based, U-937; conditions: read-out: Activity
[11] = molecular target: Toll-like receptor 4 (Homo sapiens) (UniProt O00206); test: as §1, with “50” for “10”
[12] = molecular target: Toll-like receptor 4 (Homo sapiens) (UniProt O00206); test: as §1, with “5” for “10”
[13] = molecular target: T1, Peroxisome proliferator-activated receptor gamma (Homo sapiens) (UniProt P37231); test: Binding affinity to recombinant human PPARgamma LBD at 40 uM by TR-FRET based green polar-screen PPAR competitor assay
T1 sequence (whole entry): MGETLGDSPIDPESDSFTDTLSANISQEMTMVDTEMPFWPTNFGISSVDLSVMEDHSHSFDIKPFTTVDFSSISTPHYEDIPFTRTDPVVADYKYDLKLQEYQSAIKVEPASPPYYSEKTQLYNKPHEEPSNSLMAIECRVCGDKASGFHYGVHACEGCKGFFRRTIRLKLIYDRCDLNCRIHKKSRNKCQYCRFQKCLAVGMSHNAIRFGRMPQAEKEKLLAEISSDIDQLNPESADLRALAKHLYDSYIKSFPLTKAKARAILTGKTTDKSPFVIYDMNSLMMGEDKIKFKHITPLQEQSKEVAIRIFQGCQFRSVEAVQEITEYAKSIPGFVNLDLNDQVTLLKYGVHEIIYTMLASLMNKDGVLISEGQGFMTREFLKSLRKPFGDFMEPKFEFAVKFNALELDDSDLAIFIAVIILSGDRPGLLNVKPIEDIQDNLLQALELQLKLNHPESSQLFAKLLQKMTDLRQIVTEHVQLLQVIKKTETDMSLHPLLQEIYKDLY

U-937 [14] = test: Antiinflammatory activity in human U937 cells assessed as inhibition of LPS-induced IL-8 production preincubated for 2 hrs followed by LPS stimulation and measured after 24 hrs post LPS challenge by ELISA; assay type: functional
[15] = molecular target: Toll-like receptor 4 (Homo sapiens) (UniProt O00206); test: as §1, with “activation” for “activation at 10 uM”
U-937 [16] = test: Antiinflammatory activity in human U937 cells assessed as inhibition of LPS-induced IL-8 production at 20 uM preincubated for 2 hrs followed by LPS stimulation and measured after 24 hrs post LPS challenge by ELISA; assay type: functional, cell-based
U-937 [17] = test: Antiinflammatory activity in human U937 cells assessed as inhibition of LPS-induced IL-8 production at 40 to 80 uM preincubated for 2 hrs followed by LPS stimulation and measured after 24 hrs post LPS challenge by ELISA; assay type: functional, cell-based
U-937 [18] = test: Antiinflammatory activity in human U937 cells assessed as inhibition of LPS-induced IL-6 production at 40 to 80 uM preincubated for 2 hrs followed by LPS stimulation and measured after 24 hrs post LPS challenge by ELISA; assay type: functional, cell-based
U-937 [19] = test: Antiinflammatory activity in human U937 cells assessed as inhibition Aggregatibacter actinomycetemcomitans LPS-induced IL-1beta secretion at 10 to 80 uM preincubated for 2 hrs followed by LPS stimulation and measured after 24 hrs post LPS challenge by ELISA; assay type: functional, cell-based
[20] = molecular target: Toll-like receptor 4 (Homo sapiens) (UniProt O00206); test: as §1, with “Escherichia coli” for “Aggregatibacter actinomycetemcomitans”, “5 to 50” for “10”
[21] = molecular target: Toll-like receptor 4 (Homo sapiens) (UniProt O00206); test: as §1, with “5 to 50” for “10”
U-937 [22] = test: Antiinflammatory activity in human U937 cells assessed as inhibition of LPS-induced IL-1beta production preincubated for 2 hrs followed by LPS stimulation and measured after 24 hrs post LPS challenge by ELISA; assay type: functional, cell-based
U-937 [23] = test: Antiinflammatory activity in human U937 cells assessed as inhibition of LPS-induced IL-8 production at 10 to 20 uM preincubated for 2 hrs followed by LPS stimulation and measured after 24 hrs post LPS challenge by ELISA; assay type: functional, cell-based
U-937 [24] = test: Antiinflammatory activity in human U937 cells assessed as inhibition of Escherichia coli LPS-induced IL-1beta secretion at 10 to 80 uM preincubated for 2 hrs followed by LPS stimulation and measured after 24 hrs post LPS challenge by ELISA; assay type: functional, cell-based
U-937 [25] = test: Antiinflammatory activity in human U937 cells assessed as inhibition Aggregatibacter actinomycetemcomitans LPS-induced TNFalpha secretion at 10 to 80 uM preincubated for 2 hrs followed by LPS stimulation and measured after 24 hrs post LPS challenge by ELISA; assay type: functional, cell-based
U-937 [26] = test: Antiinflammatory activity in human U937 cells assessed as inhibition of Escherichia coli LPS-induced TNFalpha secretion at 10 to 80 uM preincubated for 2 hrs followed by LPS stimulation and measured after 24 hrs post LPS challenge by ELISA; assay type: functional, cell-based
U-937 [27] = test: Antiinflammatory activity in human U937 cells assessed as inhibition of LPS-induced IL-1beta production at 20 uM preincubated for 2 hrs followed by LPS stimulation and measured after 24 hrs post LPS challenge by ELISA; assay type: functional, cell-based
U-937 [28] = test: Antiinflammatory activity in human U937 cells assessed as inhibition of LPS-induced IL-6 production at 10 to 80 uM preincubated for 2 hrs followed by LPS stimulation and measured after 24 hrs post LPS challenge by ELISA; assay type: functional, cell-based
U-937 [29] = test: Antiinflammatory activity in human U937 cells assessed as inhibition of LPS-induced IL-1beta production at 10 to 80 uM preincubated for 2 hrs followed by LPS stimulation and measured after 24 hrs post LPS challenge by ELISA; assay type: functional, cell-based

Sequence of Toll-like receptor 4 (Homo sapiens) (O00206 whole entry, the tested form may be a part): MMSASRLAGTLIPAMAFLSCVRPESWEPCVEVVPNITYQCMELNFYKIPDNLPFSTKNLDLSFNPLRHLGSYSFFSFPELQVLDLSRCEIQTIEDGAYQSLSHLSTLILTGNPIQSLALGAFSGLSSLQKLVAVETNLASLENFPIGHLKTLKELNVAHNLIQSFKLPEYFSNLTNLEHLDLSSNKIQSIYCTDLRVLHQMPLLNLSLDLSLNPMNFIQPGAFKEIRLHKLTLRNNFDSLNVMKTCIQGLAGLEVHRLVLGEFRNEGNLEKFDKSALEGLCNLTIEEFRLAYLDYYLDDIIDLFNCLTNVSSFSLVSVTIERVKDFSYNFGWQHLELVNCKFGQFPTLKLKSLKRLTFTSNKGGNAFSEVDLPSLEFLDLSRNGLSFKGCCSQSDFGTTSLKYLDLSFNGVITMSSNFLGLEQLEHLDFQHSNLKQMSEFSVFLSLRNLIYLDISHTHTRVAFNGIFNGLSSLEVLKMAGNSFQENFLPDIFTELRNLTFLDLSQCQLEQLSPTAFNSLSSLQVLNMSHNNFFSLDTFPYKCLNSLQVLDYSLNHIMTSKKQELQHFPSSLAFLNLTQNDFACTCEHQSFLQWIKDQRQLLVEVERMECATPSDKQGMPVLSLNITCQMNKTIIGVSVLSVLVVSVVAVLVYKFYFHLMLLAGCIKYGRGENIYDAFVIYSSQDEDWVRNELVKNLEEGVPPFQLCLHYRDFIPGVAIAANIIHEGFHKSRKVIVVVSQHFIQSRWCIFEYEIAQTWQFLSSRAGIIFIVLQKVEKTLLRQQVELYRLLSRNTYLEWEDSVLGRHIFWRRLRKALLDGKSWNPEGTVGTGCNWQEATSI

Row | Compound | inhibition [1] | inhibition [7] | inhibition [11] | inhibition [12] | Activity [13] | inhibition [15] | viability at 24 h, 10 µM [2] | viability at 24 h, 20 µM [3] | inhibition at 10 µM (U-937 [4]) | viability at 24 h, 80 µM [5] | inhibition at 40 µM (U-937 [6]) | inhibition at 20 µM (U-937 [8]) | inhibition at 80 µM (U-937 [9]) | viability at 24 h, 40 µM [10] | other results
1 | CCCCCc1c(Oc2cc3c(cc2OC)C(CCCC)(OC)OC3=O)c(O)cc(O)c1C(=O)O (configuration not stated) | 39% | 63% | 84% | 27% | – | – | 126% | 131% | 0% | 52% | 3% | 0% | 100% | 121% | –
2 | COC(=O)c1c(C)cc(O)c(C)c1O [ATRARIC ACID] | 19% | 36% | 25% | 27% | inactive | – | 112% | 118% | 0% | 125% | 0% | 0% | 0% | 116% | –
3 | CCC/C=C1\OC(=O)c2cc(Oc3c(O)cc(O)cc3CCCCC)c(OC)cc21 | 28% | 60% | 99% | 26% | – | Dose-dependent effect | 117% | 101% | 0% | 10% | 90% | 0% | 100% | 38% | inhibition (U-937 [28]): inactive; inhibition (U-937 [29]): inactive
4 | CCCCCc1cc(O)cc(O)c1Oc1cc2c(cc1OC)C(CCCC)(OC)OC2=O (configuration not stated) | 15% | 29% | 34% | 12% | – | – | 116% | 96% | 0% | 24% | 0% | 0% | 100% | 87% | –

Further lines, with some results ahead:

Row | inhibition [1] | inhibition [7] | inhibition [11] | inhibition [12] | Activity [13] | inhibition [15] | Compound | viability at 24 h, 10 µM [2] | viability at 24 h, 20 µM [3] | inhibition at 10 µM (U-937 [4]) | viability at 24 h, 80 µM [5] | inhibition at 40 µM (U-937 [6]) | inhibition at 20 µM (U-937 [8]) | inhibition at 80 µM (U-937 [9]) | viability at 24 h, 40 µM [10] | other results
5 | 24% | 38% | 67% | 17% | – | – | COC(=O)c1c(C)cc(O)c(C=O)c1O [METHYL HAEMATOMMATE] | 119% | 102% | 0% | 82% | 41% | 3% | 80% | 102% | inhibition (U-937 [14]): Dose-dependent effect
6 | – | – | – | – | Active | – | CN(CCOc1ccc(CC2SC(=O)NC2=O)cc1)c1ccccn1 (configuration not stated) | – | – | – | – | – | – | – | – | –
7 | 39% | 52% | 52% | 23% | Active | – | CCCCCc1cc(O)cc(O)c1Oc1cc(OC)cc(C(=O)CCCC)c1C(=O)OC | 119% | 105% | 0% | 66% | 0% | 0% | 55% | 85% | –
8 | 29% | 48% | 36% | 26% | Active | – | CCCCCc1cc(O)cc(O)c1Oc1cc(OC)cc2c1C(=O)OC2(O)CCCC (configuration not stated) | 118% | 124% | 0% | 114% | 0% | 0% | 7% | 122% | –
9 | 42% | 78% | 99% | 29% | Active | Dose-dependent effect | CCCCCc1c2c(cc(O)c1C(=O)O)OC(=O)c1c(cc(OC)cc1C(=O)CCCC)O2 [LOBARIC ACID] | 118% | 121% | 1% | 90% | 100% | 89% | 100% | 73% | inhibition (U-937 [16]): inactive; inhibition (U-937 [17]): Active; inhibition (U-937 [18]): Active; inhibition (U-937 [19]): Dose-dependent effect; inhibition [20]: Dose-dependent effect; inhibition [21]: Dose-dependent effect; inhibition (U-937 [22]): Dose-dependent effect; inhibition (U-937 [23]): inactive; inhibition (U-937 [24]): Dose-dependent effect; inhibition (U-937 [25]): Dose-dependent effect; inhibition (U-937 [26]): Dose-dependent effect
10 | 52% | 75% | 98% | 37% | Active | Dose-dependent effect | CCCCCc1c(Oc2cc(OC)cc(C(=O)CCCC)c2C(=O)OC)c(O)cc(O)c1C(=O)O | 96% | 86% | 0% | 48% | 55% | 0% | 100% | 67% | inhibition (U-937 [17]): Active; inhibition (U-937 [18]): Active; inhibition (U-937 [19]): Active; inhibition [20]: Active; inhibition [21]: Active; inhibition (U-937 [22]): Dose-dependent effect; inhibition (U-937 [23]): inactive; inhibition (U-937 [24]): Active; inhibition (U-937 [25]): Active; inhibition (U-937 [26]): Active; inhibition (U-937 [27]): inactive
